Assay results as given in patent publication US20130011393A1, “BAD PATHWAY GENE SIGNATURE” (priority 2010, published 2013).

Tests used:
Format in all cases: cell-based, human
A2780S and A2780CP cells = assay: Apoptotic nuclei after cisplatin in cells transfected with BAD phosphorylation-site mutants; conditions: 1 μM (A2780S) or 10 μM (A2780CP) cisplatin, 48 hours
Protocol: (§1) In FIGS. 14A and 14B, OVCA cell lines A2780S and A2780CP, respectively, were transfected with Flag vectors expressing wild-type BAD (WT) or BAD harboring serine (S) to alanine point mutations in serine-112, -136, or -155 (S112A, S136A, S155A). These S to A phosphorylation site mutations prevent phosphorylation of the BAD protein. Transfected cells were treated with vehicle or 1 μM (A2780S) or 10 μM (A2780CP) cisplatin for 48 hours and evaluated for the presence of apoptotic nuclei. FIG. 14C is a Western blot showing depletion of PP2C and PKA by siRNA. Controls included a non-targeting siRNA (NT). GAPDH was used as a loading control. […] Error bars indicate standard error of the mean.
(§2) RNA duplexes for PP2C/PPM1A (s10909 from ABI), cAMP-dependent protein kinase (PKA; 6406 from Cell Signaling), and vectors containing mutated BAD (pFlag-600, a kind gift from Dr. Hong Gang Wang, MCC) were transfected using the Nucleofector transfection kit, with non-targeting Silencer negative control #2 siRNA (ABI), according to manufacturer's protocols (Amaxa).
(§3) Morphologic assessment of condensed chromatin and fragmented DNA quantified percent apoptotic nuclei. Cells were fixed in 4% paraformaldehyde, and nuclei were stained with bis-benzimide trihydrochloride (0.5 μg/ml; Molecular Probes) and quantified using fluorescence microscopyl^5.

[1] = test system: OVCA cell lines (A2780S, A2780CP, A2008, C13); assay: Cisplatin-resistance by CellTiter-96 MTS proliferation assay in serially cisplatin-treated OVCA cell lines; conditions: after in vitro cisplatin-treatment/expansion cycles versus cells prior to serial cisplatin treatment
Protocol: Acquisition and culture conditions for the expansion of OVCA cells lines (T8, OVCAR5, OV2008, IGROV1, C13, A2780S, A2780CP, and A2008) were reported previouslyl^10. Cells were subjected to sequential treatment with increasing doses of cis-diammine-dichloroplatinum (cisplatin), using three dosing schedules resulting in […] treatment/expansion cycles. Treatment schedules A, B, and C included three treatments with 1, 2, and 3 μg/mL cisplatin, respectively, followed by three treatments with 3, 4, and 5 μg/mL, respectively. Each cisplatin treatment was followed by a cell recovery/expansion phase. Both cisplatin-resistance and genome-wide expression changes were measured serially in each cell line at baseline and after 3 and 6 cisplatin-treatment/expansion cycles. Cisplatin-resistance was quantified using CellTiter-96 MTS proliferation assays (Fisher Scientific) and analyzed genome-wide expression using Affymetrix Human U133 Plus 2.0 GeneChips as previously described^10,11 (Gene Expression Omnibus (GEO) accession number GSE23553).
Many of the BAD-pathway genes found to be associated with evolution of in vitro cisplatin-resistance are known to influence BAD phosphorylation (FIG. 12). The inventors therefore tested the hypothesis that BAD-phosphorylation status is associated with OVCA cisplatin-resistance. […]

A2780S cells = assay: Apoptotic nuclei after cisplatin following siRNA depletion of PKA or PP2C/PPM1A; conditions: 1 μM cisplatin
Protocol: as §1, §2, §3

N.N.[Cl][Pt][Cl] [cisplatin, cis-diammine-dichloroplatinum]
cisplatin sensitivity (apoptotic nuclei) (A2780S and A2780CP cells; cells transfected with BAD[112A]): no effect
cisplatin-induced apoptosis (apoptotic nuclei) (A2780S and A2780CP cells; cells transfected with BAD[S136A], BAD[S155A] versus wild-type BAD): increased
cisplatin EC50 [1]: higher
cisplatin-induced apoptosis (percent apoptotic nuclei) (A2780S cells; siRNA depletion of PKA versus non-targeting control siRNA): increased
cisplatin-induced apoptosis (percent apoptotic nuclei) (A2780S cells; siRNA depletion of PP2C/PPM1A): decreased
